From patent US20250084078A1, “FUSED RING-SUBSTITUTED SIX-MEMBERED HETEROCYCLIC COMPOUND, AND PREPARATION METHOD THEREFOR AND USE THEREOF” (GENFLEFT THERAPEUTICS (SHANGHAI) INC., priority 2022, published 2025) come the findings set out here.

For test [1], the target named is T1, HPK1 (Homo sapiens, UniProt Q92918).
T1 sequence (Q92918 1-346): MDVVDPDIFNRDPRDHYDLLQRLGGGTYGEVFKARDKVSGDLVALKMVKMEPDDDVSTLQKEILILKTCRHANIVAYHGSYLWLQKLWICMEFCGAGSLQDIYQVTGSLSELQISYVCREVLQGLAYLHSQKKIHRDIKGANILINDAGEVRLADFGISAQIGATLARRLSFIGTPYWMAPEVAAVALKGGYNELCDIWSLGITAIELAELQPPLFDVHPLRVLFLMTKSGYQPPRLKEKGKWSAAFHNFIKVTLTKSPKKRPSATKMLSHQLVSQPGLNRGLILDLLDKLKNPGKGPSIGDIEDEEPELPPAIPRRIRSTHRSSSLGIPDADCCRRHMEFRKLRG
As to the kind of experiment: HPK1 kinase activity assay (ADP-Glo). Conditions: HPK1 Kinase activity IC50, ADP-Glo; 1 nM HPK1, 10 μM ATP, 0.1 μg/μL MBP. (In general: ADP-Glo turns the ADP formed in a reaction into a luminescent signal.)
Experimental: Preparation of buffer: Ix reaction buffer (40 mM Tris-HCl, 20 mM MgCl2, 0.01% Brij35, 50 μM DTT, 0.1 mg/ml BSA) was prepared using sterile water, which was prepared and used on the day of the experiment.
(§1) Preparation of 1000× drug stock plate: a 1000× compound stock plate was prepared. […] The compound stock plate was sealed with a sealing film and stored in a −20° C. refrigerator for later use.
Compound preparation and dosing: the 1000× drug stock plate was taken and melted at room temperature in the dark. Then 5× drug intermediate plate was prepared using reaction buffer and mixed well. 2 μL was transferred from the 5× drug intermediate plate into a 384-well plate, and negative control well and positive control well (in which 2 μL reaction buffer containing 0.5% DMSO was added) were set. Each point was repeated twice.
Preparation and incubation of reaction mixture: HPK1 protein was diluted to a 2.5× working solution with reaction buffer. 4 μL 2.5×HPK1 protein was added to each well containing test compound and positive control well, and 4 μL of reaction buffer without HPK1 protein was added to the negative control well. The obtained mixture was centrifuged at 1000 rpm for 1 min and then incubated in a 20° C. incubator for 15 min. A 2.5× mixed working solution of MBP protein and ATP was prepared with reaction buffer at concentrations of 0.5 μg/μL and 50 μM, respectively. 4 μL of the mixed working solution of MBP and ATP was added to each well, centrifuged at 1000 rpm for 1 min, and then incubated in a 20° C. incubator for 90 min.
ADP-Glo detection and reading plate: 10 μl ADP-Glo was added to each well of the test plate. The resulting mixture was centrifuged at 1000 rpm for 1 min and incubated in a 20° C. incubator for 60 min. Then 10 μL of the final incubation solution was transferred from the test plate to a new 384-well plate. 10 μL of kinase detection reagent was added to each well, centrifuged at 400 g for 1 min, and incubated in a 20° C. incubator for 60 min Chemiluminescent signals were read by a microplate reader.

In test [2] the target is HPK1 (Homo sapiens, UniProt Q92918). Nature of the test: SLP76 phosphorylation assay (intracellular HPK1 inhibitory activity, p-SLP76 S376 ELISA in Jurkat cells). Conditions: p-SLP76 IC50, Jurkat, Clone E6-1 cells; 1 h compound pre-incubation; anti-CD3 beads stimulation 20 min; Phospho-SLP-76 (Ser376) ELISA.
Target sequence in this assay (Q92918 whole entry): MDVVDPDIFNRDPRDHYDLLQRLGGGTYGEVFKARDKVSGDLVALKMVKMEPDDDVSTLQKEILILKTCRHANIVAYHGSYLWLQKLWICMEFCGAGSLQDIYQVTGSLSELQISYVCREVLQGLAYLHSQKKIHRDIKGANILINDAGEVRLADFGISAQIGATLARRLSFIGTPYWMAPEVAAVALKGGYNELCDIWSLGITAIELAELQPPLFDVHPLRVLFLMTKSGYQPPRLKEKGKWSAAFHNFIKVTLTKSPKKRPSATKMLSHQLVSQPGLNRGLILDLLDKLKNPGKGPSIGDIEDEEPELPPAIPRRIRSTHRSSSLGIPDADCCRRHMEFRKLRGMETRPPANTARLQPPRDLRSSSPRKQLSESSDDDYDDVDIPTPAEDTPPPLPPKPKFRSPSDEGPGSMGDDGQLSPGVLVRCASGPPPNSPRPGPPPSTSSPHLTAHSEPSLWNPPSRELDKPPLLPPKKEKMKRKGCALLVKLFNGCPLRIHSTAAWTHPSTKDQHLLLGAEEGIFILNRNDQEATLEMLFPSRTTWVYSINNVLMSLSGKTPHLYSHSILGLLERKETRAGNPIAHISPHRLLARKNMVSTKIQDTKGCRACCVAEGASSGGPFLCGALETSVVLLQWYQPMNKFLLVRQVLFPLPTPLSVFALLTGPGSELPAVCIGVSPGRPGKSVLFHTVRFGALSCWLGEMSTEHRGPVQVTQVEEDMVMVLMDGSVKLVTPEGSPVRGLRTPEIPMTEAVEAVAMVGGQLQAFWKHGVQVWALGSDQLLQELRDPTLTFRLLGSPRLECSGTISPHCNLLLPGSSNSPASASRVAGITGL
Experimental: SLP76 Phosphorylation Assay
Intracellular HPK1 inhibitory activity was tested by the detection of SLP76 phosphorylation at S376.
as §1
Preparation of Beads wash buffer: 0.1 mL FBS and 0.4 mL 0.5 M EDTA (with a final concentration of 2 mM) were added to 100 mL PBS and stored in a 4° C. refrigerator for later use.
100× Protease Inhibitor Cocktail in 1/20 total volume was added and stored on wet ice for later use. The buffer was ready to use.
Cell inoculation and dosing: the 1000× drug stock plate was taken and melted at room temperature in the dark. […] Jurkat cells in the logarithmic growth phase were selected and collected. […] The cells were inoculated into a 96-well plate (the volume was 90 μL per well), and a blank control well (without cells inoculation, and in which 110 μL of medium was added) was set. 10 μL of a drug-containing culture medium (10×) was transferred from the 10× drug intermediate plate into the 96-well cell plate (with a final concentration of 0.1% DMSO), and set a DMSO control group (in which 0.1% DMSO was added to the treated cells), a stimulated control group (in which 10 μL of culture medium was added to treat cells) and an unstimulated group (in which 10 μL of culture medium was added to treat cells). The wells were duplicated, gently patted, mixed, and then placed into a 5% CO2 incubator at 37° C. for 1 h.
Anti-CD3 beads stimulation: Dynabeads anti-human CD3 was taken, shaken, and mixed for 60 s. The required volume of beads was pipetted, and an equal volume or at least 1 mL of washing solution was added to wash once. Fresh complete medium was then added to resuspend and adjust the density of the beads to 4×10^7/mL, and the beads were placed on ice for later use. At the end of drug pre-incubation, the cell culture plate was taken out. 10 μL Dynabeads anti-human CD3 was added to each well to treat the cells, and 10 μL the culture medium was added to the unstimulated group. The cell culture plate was shaken to mix well at 2500 rpm for 10 s, and then placed into a 5% CO2 incubator at 37° C. and continued to culture for 20 min.
Detection of p-SLP76 protein level: PathScan Phospho-SLP-76 (Ser376) Sandwich ELISA Kit was applied to detect p-SLP76 protein level. At the end of the Anti-CD3 beads stimulation, the cell culture plate was removed from the incubator. […] After lysis, the cell culture plate was centrifuged at 4° C., 400×g for 5 min. 25 μL of sample and 75 μL of sample diluent were added to each well, and the plate was placed in a 5% CO2 incubator at 37° C. for 2 h. The subsequent detection steps were carried out following the kit instructions, and the absorbance (OD value) of each well was read at 450 nm by a microplate reader.

For `CC(C)c1c[nH]c2ncc(-c3cc4c(c([C@@H]5COCCN5)c3)CN(C(=O)C(C)(C)O)CC4)nc12` [Compound Z541, (R)-2-hydroxy-1-(6-(7-isopropyl-5H-pyrrolo[2,3-b]pyrazin-2-yl)-8-(morpholin-3-yl)-3,4-dihydroisoquinolin-2(1H)-yl)-2-methylpropan-1-one], the IC50 – broadly, the concentration that inhibits the measured activity by half – on HPK1 [1] turned out to be 0.16 nM; against HPK1 [2] it was 33.7 nM.
For the compound `Cc1c[nH]c2ncc(-c3cc4c(c([C@@H]5CCCN5)c3)CN(C(=O)c3ccn(C5CC5)n3)CC4)cc12` [Compound Z494, (S)-(1-cyclopropyl-1H-pyrazol-3-yl)(6-(3-methyl-1H-pyrrolo[2,3-b]pyridin-5-yl)-8-(pyrrolidin-2-yl)-3,4-dihydroisoquinolin-2(1H)-yl)methanone], the IC50 on HPK1 [1] worked out at 0.81 nM; against HPK1 [2], 453 nM.
With `CC(C)(O)C(=O)N1CCc2cc(-c3cnc4[nH]cc(C5CC5)c4c3)cc([C@@H]3COCCN3)c2C1` [Compound Z523, (R)-1-(6-(3-cyclopropyl-1H-pyrrolo[2,3-b]pyridin-5-yl)-8-(morpholin-3-yl)-3,4-dihydroisoquinolin-2(1H)-yl)-2-hydroxy-2-methylpropan-1-one], the values for the IC50 at HPK1 [1] and against HPK1 [2] were 0.17 nM and 51.8 nM, respectively.
For `O=C(N1CCc2cc(-c3cnc4[nH]cc(Cl)c4c3)cc([C@@H]3COCCN3)c2C1)N1CC2CCC(C1)O2` [Compound Z447, (8-oxa-3-azabicyclo[3.2.1]octan-3-yl)(6-(3-chloro-1H-pyrrolo[2,3-b]pyridin-5-yl)-8-((R)-morpholin-3-yl)-3,4-dihydroisoquinolin-2(1H)-yl)methanone], the values for the IC50 on HPK1 [1] and at HPK1 [2] were 0.18 nM and 44.8 nM, respectively.
